# Earlier results as cited in publication PMC3289745 (Peptides, 2011).
# Test system: conscious male rats
# Details: central injection of neuronostatin; 30 minutes post-injection
substance,measurement,value
neuronostatin,increase in plasma AVP levels relative to saline-injected controls,2–3 times
